From publication PMC10470491, “Modulation of the functional interfaces between retroviral intasomes and the human nucleosome” (mBio, 2023) come the findings set out here.

One assay relates to mononucleosome (MN). The assay is described as follows: histone eviction assay (EMSA / SDS-PAGE). The class given is biochemical, human. As to conditions: 10 µM or increasing concentrations.
The target of assay [1] is T1, PFV intasome (Human spumaretrovirus, UniProt P14350). In words: biochemical. More on the design: Briefly, PFV IN and its cognate vDNA were mixed, and assembled intasomes were purified by size exclusion chromatography; octamers produced in E. coli. As to conditions: 30 nM FITC PFV intasome, MN, drugs 0–25 µM. It is filed as biochemical, prototype foamy virus (PFV). On the procedure:
Integration assays using purified assembled intasomes were performed as followed: either 100 ng of naked DNA or 100 ng of DNA assembled on 100 ng of histone octamers (24 nM final concentration) was incubated with 30 nM final concentration of purified intasome in 100 mM NaCl, 20 mM BTP pH 7, 12.5 mM MgSO4 (for PFV intasome), or in 20 mM HEPES pH 7, 7.5% DMSO, 8% PEG, 10 mM MgCl2, 20 µM ZnCl2, 100 mM NaCl, 5 mM DTT final concentration (for HIV-1 intasome) in a final volume of 40 µL. The mix was then incubated at 37°C for 15 min and 1 h, respectively. Then, reaction was stopped by the addition of 5.5 µL of a mix containing 5% SDS and 0.25 M EDTA and deproteinized with proteinase K (Promega) for 1 h at 37°C. Nucleic acids were then precipitated with 150 µL of ethanol overnight at −20°C. Samples were then spun at top speed for 1 h at 4°C, and the pellets were dried and then resuspended with DNA loading buffer. Integration products were separated on an 8% native polyacrylamide gel.

The subject of assay [2] is PFV intasome/nucleosome complex. In words: AlphaLISA PFV intasome/nucleosome interaction assay. Particulars: for IC50: intasome/nucleosome AS assay, Fig. 3E; for IC50 / inhibition of intasome/nucleosome association in AS: increasing drug concentrations; for selection as intasome/nucleosome modulator in the OncoSET screen: 25 µM. It is filed as binding, prototype foamy virus (PFV); human mononucleosome. The method, then:
AlphaLISA is a technology particularly suitable for bimolecular inhibitor screening assays using protein-protein interactions with purified recombinant proteins. The AlphaLISA assay development was performed in 96-well 12 area Alphaplate (reference 6052340, PerkinElmer, Waltham, MA, USA) with a final reaction volume of 40 µL. Cross-titration experiments of biotinylated MN (0–50 nM) against DIG-intasome (0–100 nM) were carried out to establish optimal assay concentrations for the binding assay. Ten microliters of each protein were diluted in the binding buffer 50 mM BisTris-propane pH 7, 100 mM NaCl, 0.1% (v/v) Tween-20, 0.1% (w/v) BSA, and 1 mM dithiothreitol. The plate was incubated at RT for 2 h in rotation. Ten microliters of anti-DIG acceptor beads (PerkinElmer, reference AL113) were then added, and after 1 h of incubation at RT with rotation, 10 µL of streptavidin […] (Perkin Elmer, reference 6760002) was mixed to the wells. This established a final concentration of 20 µg/mL for each bead. The plate was then incubated for 1 h at RT in the dark before the AlphaLISA signal was detected using an EnSpire Multimode Plate Reader (PerkinElmer). Negative control with binding buffer or only with one of the complexes was used to control the assay quality. Data were analyzed with GraphPad Prism 5.01 software. To evaluate tolerance for DMSO, the assay was performed as described above with an addition of 0.15–20% (v/v) of DMSO during the binding step. For the competition experiment, increasing concentrations of untagged intasome were titrated out in the 1-nM DIG-intasome/biotinylated nucleosome interaction assay.
For the AlphaLISA screening assay with the NIH OncoSET library, the binding conditions were optimized for use in 384-well plate (Optiplate, reference 6007290, PerkinElmer) with the same concentrations for complexes and beads in a final reaction volume of 20.5 µL (2.5% DMSO final concentration). The screening was first carried out with 25 µM of each compound pre-incubated for 1 h with 1 nM intasome/nucleosome complexes. Compounds were selected as inducing at least 50% decrease of the AlphaLISA signal control condition, and their inhibitory effect was further tested using dose-response curves. For compounds validation, counter select assay was performed using a short DNA fragment carrying a biotin and a DIG tag on each side. The AlphaLISA signal was monitoring using increasing concentrations of the double-tagged DNA, and the selected compounds were tested in optimized conditions at 10 µM. Any compound that causes decreased signal means that it interferes with AlphaLISA readout, and therefore, it is not relevant to this assay.
Background: Alpha assays give light when donor and acceptor beads are brought close together.

The subject of assay [3] is HIV-1 intasome (vDNA•IN•LEDGF/p75). In words: in vitro HIV-1 concerted integration onto mononucleosome. The class given is biochemical. Particulars: MN.
The target of assay [4] is T1, PFV intasome. In words: in vitro PFV integration into naked plasmid pBSK-601-Zeo DNA. The class given is biochemical, prototype foamy virus (PFV). Further details: Briefly, PFV IN and its cognate vDNA were mixed, and assembled intasomes were purified by size exclusion chromatography; made in house. Particulars: 10 µM. The method, then: MNs were assembled as previously described for chromatin assembly ([7], [8]). Briefly, 5 µg of biotinylated 147 bp Widom fragment (TEBU-bio) were mixed with an excess of 10 µg of human native recombinant octamers produced in E. coli [purchased from the “Histone Source” Protein Expression and Purification (PEP) facility from the Colorado State University, https://histonesource-colostate.nbsstore.net] in Tris-HCl pH 7.7 and 2 M NaCl in 100 µl final volume. Salt dialysis was then performed to decrease the salt concentration to 0 using slide-A-Lyzer MINI dialysis device, 7 k MWCO (Fisher Scientific). Assembly was checked by electro-mobility shift assay (EMSA) on 8% native PAGE stained with SYBR safe and SDS-PAGE stained with instant blue. Eviction assays of the assembled nucleosome were incubated with increasing concentrations of drugs and then analyzed by EMSA or SDS-PAGE of the supernatant after their capture using streptavidin beads (MyONE T1 invitrogen). Naked DNA substrates (pBSK-601-Zeo vector plasmid containing 601 Widom repetitions or 147 bp 601 DNA fragment) used for comparative integration assays were treated as for nucleosome assembly. […]

Setting [5] is: OncoSET screen, 25 µM drug, 1 nM of each partner.

Structures are written as SMILES. Entries after “also recorded” stand apart in the source; their conditions may differ. *1 amine or outer side, *2 acyl side, *3 side chain or, on linkers, in order; H or OH if unused. Where a SMILES comes first, the peptide text is derived from it. Bridges are numbered along the chain shown (N, C = ends). Roman numbers before positions name the chains, in order. [ ]: non-standard residue; d: D form. Actinocin(9to1) = Cc1c2oc3c(C)ccc(C(=O)[*:1])c3nc-2c(C(=O)[*:2])c(N)c1=O; NMeV = CN[C@H](C(=O)O)C(C)C; Sar = CNCC(=O)O

The IC50 is the concentration that inhibits the measured activity by half.

Take `COc1cccc2c1C(=O)c1c(O)c3c(c(O)c1C2=O)C[C@@](O)(C(C)=O)C[C@@H]3O[C@H]1C[C@H](N)[C@H](O)[C@H](C)O1` [Daunorubicin, daunorubicin]: the “histone eviction / MN dissociation” value with mononucleosome (MN) is “strong displacement of histones from the MN”. Further, on PFV intasome [1], the “inhibition of PFV integration into MNs” value is “able to inhibit PFV integration into MNs”. In addition, the “decrease in the AS signal” value in assay [2] (setting [5]) is reported as “at least 50%”. This compound returned an IC50 in assay [2] of 3240 ± 18 nM. For the same compound, the “effect on the intasome/nucleosome AS signal” value in assay [2] (retest at 10 µM, MN) is “strong inhibitory effect”.
`COc1cccc2c1C(=O)c1c(O)c3c(c(O)c1C2=O)C[C@@](O)(C(=O)CO)C[C@@H]3O` [Doxorubicinone, doxorubicinone]: in the assay with mononucleosome (MN), the “histone eviction / MN dissociation” value is “could not dissociate the MN”. In addition, the “inhibition of PFV integration into MNs” value against PFV intasome [1] was “inefficient in inhibiting the in vitro integration”. In addition, the “inhibition of in vitro HIV-1 integration” value in assay [3] was “inefficient”.
Take `CC(=O)[C@]1(O)Cc2c(O)c3c(c(O)c2[C@@H](O[C@H]2C[C@H](N)[C@H](O)[C@H](C)O2)C1)C(=O)c1ccccc1C3=O` [Idarubicin, idarubicin]: the “histone eviction / MN dissociation” value in the assay on mononucleosome (MN) is recorded as “strong displacement of histones from the MN”. The “inhibition of PFV integration into MNs” value against PFV intasome [1] is recorded as “able to inhibit PFV integration into MNs”. In addition, the “decrease in the AS signal” value in assay [2] (setting [5]) is “at least 50%”. In addition, the midpoint of inhibition in assay [2], the IC50, lay at 450 ± 22 nM. In addition, the “effect on the intasome/nucleosome AS signal” value in assay [2] (retest at 10 µM, MN) is “strong inhibitory effect”.
As to `O=C1c2c(O)ccc(O)c2C(=O)c2c(NCCNCCO)ccc(NCCNCCO)c21` [Mitoxantrone, mitoxantrone], the “inhibition of PFV integration into plasmid pBSK-601-Zeo DNA” value against PFV intasome [4] is “remained inefficient”. For the same compound, the “inhibition of PFV integration into MNs” value against PFV intasome [1] was “did not show any inhibitory effect on integration”. In assay [2] (setting [5]), the “decrease in the AS signal” value is given as “at least 50%”. The compound further registered a concentration for half-maximal inhibition (IC50) in assay [2] of 380 ± 50 nM. In addition, in assay [2] (retest at 10 µM, MN), the “effect on the intasome/nucleosome AS signal” value was “strong inhibitory effect”.
As for `C=CC(=O)Nc1cc(Nc2nccc(-c3cn(C)c4ccccc34)n2)c(OC)cc1N(C)CCN(C)C` [Osimertinib, osimertinib], the “decrease in the AS signal” value in assay [2] (setting [5]) was “at least 50%”; in assay [2] (retest at 10 µM, MN) it was 30–40%. For the same compound, the “inhibition of intasome/nucleosome association in AS” value in assay [2] is “no inhibition in the concentration range used”.
For the compound `COc1cccc2c1C(=O)c1c(O)c3c(c(O)c1C2=O)C[C@@](O)(C(=O)CO)C[C@@H]3O[C@H]1C[C@H](N)[C@H](O[C@@H]2CCCCO2)[C@H](C)O1` [Pirarubicin, pirarubicin], the “histone eviction / MN dissociation” value in the assay on mononucleosome (MN) was “full shift of the nucleosomal DNA in addition to a strong MN dissociation”. In addition, on PFV intasome [1], the “inhibition of PFV integration into MNs” value is reported as “able to inhibit PFV integration into MNs”. In assay [2] (setting [5]), the “decrease in the AS signal” value was “at least 50%”. Besides, the IC50 in assay [2] is 630 ± 20 nM. For the same compound, the “effect on the intasome/nucleosome AS signal” value in assay [2] (retest at 10 µM, MN) is listed as “strong inhibitory effect”.
With `CC/C(=C(\c1ccccc1)c1ccc(OCCN(C)C)cc1)c1ccccc1` [Tamoxifen, tamoxifen], the “inhibition of PFV integration into plasmid pBSK-601-Zeo DNA” value on PFV intasome [4] is “remained inefficient”. For the same compound, the “inhibition of PFV integration into MNs” value on PFV intasome [1] is reported as “inefficient in inhibiting integration”. In addition, the “inhibition of intasome/nucleosome association in AS” value in assay [2] was “only a slight inhibition effect”.
For the compound `Cc1c2oc3c(C)ccc(C(=O)N[C@@H]4C(=O)N[C@H](C(C)C)C(=O)N5CCC[C@H]5C(=O)N(C)CC(=O)N(C)[C@@H](C(C)C)C(=O)O[C@@H]4C)c3nc-2c(C(=O)N[C@@H]2C(=O)N[C@H](C(C)C)C(=O)N3CCC[C@H]3C(=O)N(C)CC(=O)N(C)[C@@H](C(C)C)C(=O)O[C@@H]2C)c(N)c1=O` [actinomycin D] (I: T[dV]P[Sar][NMeV] / II: T[dV]P[Sar][NMeV]; ester I:1-I:C, II:1-II:C; linker I:N-II:N via Actinocin(9to1)), the “selection as intasome/nucleosome modulator in the OncoSET screen” value in assay [2] (OncoSET screen) is on record as “lack of effect”.
In the case of `N.N.[Cl][Pt][Cl]` [cisplatin], the “inhibition of PFV integration into MNs” value against PFV intasome [1] was “only a slight inhibition of integration into nucleosome”.
In the case of `COc1cccc2c1C(=O)c1c(O)c3c(c(O)c1C2=O)C[C@@](O)(C(=O)CO)C[C@@H]3O[C@H]1C[C@H](N)[C@@H](O)[C@H](C)O1` [epirubicin], the “selection as intasome/nucleosome modulator in the OncoSET screen” value in assay [2] (OncoSET screen) was “not selected as an intasome/nucleosome modulator; also recorded: inefficient in inhibiting the intasome/nucleosome complex”.
Take `O=C1CCC(N2C(=O)c3ccccc3C2=O)C(=O)N1` (centres unmarked) [thalidomide]: the “inhibition of PFV integration into MNs” value against PFV intasome [1] is given as “did not show any effect”.
As to `CC[C@@]1(O)C(=O)OCc2c1cc1n(c2=O)Cc2cc3c(CN(C)C)c(O)ccc3nc2-1` [topotecan], the “inhibition of PFV integration into MNs” value at PFV intasome [1] is “did not show any effect”.
Regarding `CCCCC(=O)OCC(=O)[C@]1(O)Cc2c(O)c3c(c(O)c2[C@@H](O[C@H]2C[C@H](NC(=O)C(F)(F)F)[C@H](O)[C@H](C)O2)C1)C(=O)c1c(OC)cccc1C3=O` [valrubicin], in assay [2] (OncoSET screen), the “selection as intasome/nucleosome modulator in the OncoSET screen” value is “inefficiency”.
